In the supplement of paper PMC10307832:

Legend:
Experiment in all cases: relative viability (nuclei count vs DMSO), 5 days (fraction); higher = more cells survive
BGJ398 + Palbociclib = compound: CCN1CCN(c2ccc(Nc3cc(N(C)C(=O)Nc4c(Cl)c(OC)cc(OC)c4Cl)ncn3)cc2)CC1 [BGJ398] + CC(=O)c1c(C)c2cnc(Nc3ccc(N4CCNCC4)cn3)nc2n(C2CCCC2)c1=O [Palbociclib] (partner 0.5 µM)
Outline: (§1)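 Nuclei were stained with Hoechst during a one-step fixation (final 0.05% Triton X-100, 1% formaldehyde, 1 ug/ml Hoechst) carried out 5 days after dosing, then counted on 4× images. The cells, lung cancer lines in 1536-well plates, had been dosed by pin tool the day after seeding with one drug alone or a fixed anchor-drug dose plus five library-drug doses (not always all listed) in √10 steps. Relative viability is the nuclei count in treated wells divided by that in vehicle wells, and each value is the median of duplicate plates.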

BGJ398 + Luminespib = compound: CCN1CCN(c2ccc(Nc3cc(N(C)C(=O)Nc4c(Cl)c(OC)cc(OC)c4Cl)ncn3)cc2)CC1 [BGJ398] + CCNC(=O)c1noc(-c2cc(C(C)C)c(O)cc2O)c1-c1ccc(CN2CCOCC2)cc1 [Luminespib] (partner 0.01 µM)
Outline: as §1

BGJ398 + Phenformin = compound: CCN1CCN(c2ccc(Nc3cc(N(C)C(=O)Nc4c(Cl)c(OC)cc(OC)c4Cl)ncn3)cc2)CC1 [BGJ398] + N=C(N)NC(=N)NCCc1ccccc1 [Phenformin] (partner 250 µM)
Outline: as §1

[1] = compound: C1=CC2=NC=CN=C2C=C1/C=C/3\C(=O)NC(=O)S3 + CS(=O)(=O)CCNCc1ccc(-c2ccc3ncnc(Nc4ccc(OCc5cccc(F)c5)c(Cl)c4)c3c2)o1 [Lapatinib] (partner 2 µM)
Outline: as §1

| Cell Line | relative viability (BGJ398 + Palbociclib; first compound 0.01 µM) | relative viability (BGJ398 + Palbociclib; first compound 0.03162 µM) | relative viability (BGJ398 + Palbociclib; first compound 0.1 µM) | relative viability (BGJ398 + Palbociclib; first compound 0.3162 µM) | relative viability (BGJ398 + Palbociclib; first compound 1 µM) | relative viability (BGJ398 + Luminespib; first compound 0.01 µM) | relative viability (BGJ398 + Luminespib; first compound 0.03162 µM) | relative viability (BGJ398 + Luminespib; first compound 0.1 µM) | relative viability (BGJ398 + Luminespib; first compound 0.3162 µM) | relative viability (BGJ398 + Luminespib; first compound 1 µM) | relative viability (BGJ398 + Phenformin; first compound 0.01 µM) | relative viability (BGJ398 + Phenformin; first compound 0.03162 µM) | relative viability (BGJ398 + Phenformin; first compound 0.1 µM) | relative viability (BGJ398 + Phenformin; first compound 0.3162 µM) | relative viability (BGJ398 + Phenformin; first compound 1 µM) | relative viability ([1]; first compound 0.02 µM) | relative viability ([1]; first compound 0.06325 µM) | relative viability ([1]; first compound 0.2 µM) | relative viability ([1]; first compound 0.6325 µM) | relative viability ([1]; first compound 2 µM) |
| --- | --- | --- | --- | --- | --- | --- | --- | --- | --- | --- | --- | --- | --- | --- | --- | --- | --- | --- | --- | --- |
| NCI-H2342 | 0.523 | 0.529 | 0.513 | 0.666 | 0.611 | 0.732 | 0.701 | 0.96 | 0.754 | 0.746 | 0.574 | 0.629 | 0.704 | 0.572 | 0.657 | – | – | – | – | – |
| SK-MES-1 | 0.324 | 0.328 | 0.303 | 0.331 | 0.308 | 0.8 | 0.784 | 0.843 | 0.799 | 0.844 | 0.584 | 0.691 | 0.677 | 0.589 | 0.593 | 0.374 | 0.656 | 0.486 | 0.397 | 0.406 |
| HCC-366 | 0.435 | 0.415 | 0.422 | 0.388 | 0.476 | – | – | – | – | – | 0.632 | 0.672 | 0.6 | 0.613 | 0.673 | 0.999 | 0.927 | 1.03 | 0.905 | 1.04 |
| 201T | 0.387 | 0.358 | 0.356 | 0.349 | 0.268 | 1.24 | 0.976 | 1.07 | 1.04 | 0.979 | 0.45 | 0.444 | 0.457 | 0.382 | 0.386 | 0.854 | 1.02 | 0.979 | 0.972 | 0.8 |
| HCC-827 | 0.26 | – | 0.469 | 0.45 | 0.518 | 0.432 | – | 0.405 | 0.268 | 0.736 | 0.323 | – | 0.432 | 0.317 | 0.413 | 0.217 | 0.247 | 0.209 | 0.215 | 0.233 |
| NCI-H647 | 0.388 | 0.375 | 0.517 | 0.395 | 0.413 | 0.138 | 0.107 | 0.157 | 0.184 | 0.176 | 0.454 | 0.514 | 0.498 | 0.455 | 0.411 | 1.06 | 1.75 | 1.15 | 0.957 | 0.903 |
| NCI-H2023 | 0.341 | 0.493 | 0.285 | 0.456 | 0.404 | 0.627 | 0.849 | 0.739 | 0.851 | 0.809 | 0.409 | 0.483 | 0.434 | 0.398 | 0.371 | 0.872 | 0.735 | 1.01 | 0.764 | 0.466 |
| NCI-H520 | 0.216 | 0.19 | 0.147 | 0.142 | 0.161 | 0.205 | 0.235 | 0.234 | 0.205 | 0.203 | 0.532 | 0.481 | 0.379 | 0.189 | 0.242 | 0.842 | 0.92 | 0.832 | 0.757 | 0.882 |
| RERF-LC-KJ | 1.13 | 0.781 | 1.17 | 1.11 | 1.23 | 1.23 | 1.25 | 1.32 | 1.26 | 1.31 | 0.449 | 0.422 | 0.416 | 0.432 | 0.493 | 0.729 | 0.923 | 0.842 | 0.759 | 0.689 |
| A-427 | 0.524 | 0.488 | 0.49 | 0.435 | 0.393 | 0.903 | 0.907 | 1 | 0.794 | 0.81 | 0.354 | 0.336 | 0.273 | 0.151 | 0.211 | 1.03 | 1.04 | 1.07 | 0.994 | 1.08 |
| NCI-H441 | – | 0.186 | 0.213 | 0.25 | 0.183 | 0.453 | 0.346 | 0.318 | 0.383 | 0.371 | 0.793 | 0.642 | 0.848 | 0.879 | 1.01 | – | – | – | – | – |
| NCI-H1703 | – | – | – | – | – | – | – | – | – | – | – | – | – | – | – | 1.06 | 1.29 | 1.07 | 0.946 | 0.89 |
| NCI-H1792 | 0.637 | 0.733 | 0.61 | 0.655 | 0.532 | 0.406 | 0.542 | 0.344 | 0.401 | 0.277 | 0.288 | 0.233 | 0.259 | 0.315 | 0.262 | 0.948 | 0.851 | 0.839 | 0.953 | 0.554 |
| Calu-6 | – | – | – | – | – | – | – | – | – | – | – | – | – | – | – | 1.05 | 1.14 | 0.97 | 1.06 | 1 |
| SK-LU-1 | 0.394 | 0.47 | 0.384 | 0.339 | 0.346 | 0.215 | 0.193 | 0.189 | 0.188 | 0.197 | 0.5 | 0.556 | 0.58 | 0.367 | 0.491 | 0.834 | 0.977 | 0.891 | 1.01 | 0.693 |
| PC-3 [JPC-3] | 0.591 | – | 0.522 | – | 0.569 | 0.63 | – | 0.737 | 0.721 | 0.712 | 0.468 | – | 0.445 | 0.418 | 0.46 | 0.481 | 0.559 | 0.454 | 0.439 | 0.441 |
| EMC-BAC-2 | 0.497 | 0.558 | 0.547 | 0.568 | 0.516 | 1.14 | 1.25 | 1.22 | 1.16 | 1.09 | 0.497 | 0.585 | 0.558 | 0.5 | 0.509 | 0.829 | 0.96 | 0.962 | 0.762 | 0.555 |
| LK-2 | 0.638 | 0.862 | 0.489 | 0.336 | 0.191 | 0.18 | 0.16 | 0.169 | 0.177 | 0.172 | 0.268 | 0.295 | 0.255 | 0.18 | 0.271 | 1.01 | 0.992 | 0.934 | 0.825 | 0.481 |
